Biological target: T1, Recombinant human KIF18A (1-467His-tagged) protein (Homo sapiens, UniProt Q8NI77)
T1 construct: Recombinant human KIF18A (1-467His-tagged) protein; His; made in house
Experiment: KIF18A enzyme assay (microtubule-stimulated ATPase activity, ADP-Glo)
Format: biochemical
Conditions: 30 nM KIF18A, 75 μM ATP, 30 μg/mL pig microtubules; read-out: Inhibitory activity against KIF18A IC50
How it was run: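 Buffer 15 mM Tris pH 7.5, 10 mM MgCl2, 0.01% Pluronic F-68, 1 μM paclitaxel, 30 μg/mL pig microtubules; reactions at room temperature. IC50 from inhibition relative to DMSO.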

T1 sequence (Q8NI77 1-467): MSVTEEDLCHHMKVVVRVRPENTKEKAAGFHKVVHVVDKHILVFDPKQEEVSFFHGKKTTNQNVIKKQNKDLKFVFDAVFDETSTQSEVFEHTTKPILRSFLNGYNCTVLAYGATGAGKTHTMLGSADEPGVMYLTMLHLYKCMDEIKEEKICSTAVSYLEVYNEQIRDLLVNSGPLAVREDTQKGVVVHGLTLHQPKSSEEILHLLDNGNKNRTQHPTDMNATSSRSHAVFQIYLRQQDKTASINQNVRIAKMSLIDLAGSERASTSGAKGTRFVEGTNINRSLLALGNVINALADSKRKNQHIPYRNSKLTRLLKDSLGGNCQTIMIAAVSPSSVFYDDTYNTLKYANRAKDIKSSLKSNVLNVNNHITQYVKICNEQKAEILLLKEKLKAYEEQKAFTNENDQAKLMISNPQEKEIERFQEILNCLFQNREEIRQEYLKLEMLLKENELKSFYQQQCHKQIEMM
T1 sequence (P02550 whole entry partner): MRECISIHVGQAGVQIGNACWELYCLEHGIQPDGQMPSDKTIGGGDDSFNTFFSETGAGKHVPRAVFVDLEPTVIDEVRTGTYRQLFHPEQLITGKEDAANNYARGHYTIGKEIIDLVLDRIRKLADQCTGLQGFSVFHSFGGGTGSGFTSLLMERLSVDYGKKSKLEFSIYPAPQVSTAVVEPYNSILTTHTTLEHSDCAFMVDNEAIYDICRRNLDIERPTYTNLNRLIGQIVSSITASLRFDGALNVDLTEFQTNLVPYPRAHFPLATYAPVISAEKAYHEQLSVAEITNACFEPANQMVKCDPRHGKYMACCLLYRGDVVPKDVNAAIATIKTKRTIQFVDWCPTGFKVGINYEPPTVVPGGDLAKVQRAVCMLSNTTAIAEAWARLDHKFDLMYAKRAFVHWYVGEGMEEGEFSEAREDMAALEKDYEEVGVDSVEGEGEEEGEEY
T1 sequence (P02554 whole entry partner): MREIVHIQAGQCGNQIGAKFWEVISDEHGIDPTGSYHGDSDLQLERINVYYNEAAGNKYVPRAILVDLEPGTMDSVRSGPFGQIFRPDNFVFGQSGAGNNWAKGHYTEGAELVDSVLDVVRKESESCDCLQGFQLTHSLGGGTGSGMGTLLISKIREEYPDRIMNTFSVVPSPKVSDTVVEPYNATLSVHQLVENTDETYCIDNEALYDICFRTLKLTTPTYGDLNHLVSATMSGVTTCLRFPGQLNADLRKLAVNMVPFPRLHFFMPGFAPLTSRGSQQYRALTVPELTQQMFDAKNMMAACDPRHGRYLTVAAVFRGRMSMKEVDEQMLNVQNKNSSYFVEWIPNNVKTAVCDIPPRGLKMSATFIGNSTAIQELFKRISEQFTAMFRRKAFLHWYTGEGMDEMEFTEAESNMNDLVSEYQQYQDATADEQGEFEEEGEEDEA

## COc1ccc(NC(=O)c2ccc(S(=O)(=O)NCCO)cc2N2CCC3(CC2)CC3)nc1N1CCO[C@H](C)C1 [Compound 274]
  IC50: ≤ 100 nM

## O=C(Nc1ccc(OCF)c(N2CCC(F)(F)CC2)n1)c1cnc(S(=O)(=O)NCCO)cc1N1CCC2(CC1)CC2 [Compound 497]
  IC50: ≤ 100 nM

## C[C@@H]1CN(c2cc(C(=O)Nc3cnc(NS(=O)(=O)[C@H](C)CO)cc3N3CCC4(CC3)CC4)ccc2[N+](=O)[O-])CCO1 [Compound 208]
  IC50: ≤ 100 nM

## O=C(Nc1ccc([N+](=O)[O-])c(N2CCOCC2)c1)c1cnc(S(=O)(=O)NCCO)cc1N1CCC2(CC1)CC2 [Compound 124]
  IC50: ≤ 100 nM

## CC(C)(CO)Nc1nc(C(=O)Nc2cnc(NS(=O)(=O)CCO)cc2N2CCC3(CC2)CC3)ccc1[N+](=O)[O-] [Compound 235]
  IC50: ≤ 100 nM

## C[C@H](CO)NS(=O)(=O)c1ccc(NC(=O)c2ccc(OCF)c(N3CCO[C@H](C)C3)c2)c(N2CCC3(CC2)CC3)c1 [Compound 544]
  IC50: 100 to 500 nM

## O=C(Nc1ccc(NS(=O)(=O)CCO)cc1N1CCC2(CC1)CC2)c1ccc(OCF)c(OCCC(F)(F)F)n1 [Compound 549]
  IC50: ≤ 100 nM

## CC1(F)CCN(c2nc(NC(=O)c3ccc(S(=O)(=O)NCCO)cc3N3CCC4(CC3)CC4)ccc2[N+](=O)[O-])C1 (stereo not shown) [Compound 88]
  IC50: ≤ 100 nM

## C[C@@H]1CN(c2nc(NC(=O)c3cnc(NS(=O)(=O)[C@H](C)CO)cc3N3CCC4(CC3)CC4)ccc2[N+](=O)[O-])CCO1 [Compound 144]
  IC50: ≤ 100 nM

## C[C@H]1CN(c2cc(C(=O)Nc3ccc(S(=O)(=O)NCCO)cc3N3CCC4(CC3)CC4)ccc2[N+](=O)[O-])CCO1 [Compound 51]
  IC50: 100 to 500 nM

## C[C@H]1CN(c2cc(C(=O)Nc3ccc(S(=O)(=O)NCCO)cc3N3CCC4(CC3)CC4)ccc2OCF)CCO1 [Compound 403]
  IC50: ≤ 100 nM

## O=C(Nc1ccc(NS(=O)(=O)CCO)cc1N1CCC2(CC1)CC2)c1ccc([N+](=O)[O-])c(N2CC(F)(F)C2)n1 [Compound 164]
  IC50: ≤ 100 nM

## COc1ccc(NC(=O)c2ccc(S(=O)(=O)NCCO)cc2N2CCC3(CC2)CC3)nc1N1CCC(F)CC1 [Compound 281]
  IC50: ≤ 100 nM

## O=C(Nc1ccc([N+](=O)[O-])c(OC2CCC2)n1)c1cnc(NS(=O)(=O)CCO)cc1N1CCC2(CC1)CC2 [Compound 135]
  IC50: ≤ 100 nM

## O=C(Nc1ccc([N+](=O)[O-])c(OC2CCC2)n1)c1ccc(S(=O)(=O)NCCO)cc1N1CCC2(CC1)CC2 [Compound 87]
  IC50: ≤ 100 nM

## C[C@@H](CO)S(=O)(=O)Nc1cc(N2CCC3(CC2)CC3)c(C(=O)Nc2ccc([N+](=O)[O-])c(N3CCC(F)(F)CC3)n2)cn1 [Compound 141]
  IC50: ≤ 100 nM

## COc1ccc(NC(=O)c2cnc(S(=O)(=O)NCCO)cc2N2CCC3(CC2)CC3)nc1OC1CCC1 [Compound 311]
  IC50: ≤ 100 nM

## COc1ccc(NC(=O)c2cnc(NS(=O)(=O)CCO)cc2N2CCC3(CC2)CC3)nc1N1CCC(F)CC1 [Compound 297]
  IC50: ≤ 100 nM

## O=C(Nc1ccc(OCF)c(N2CCC3(CC3)C2)c1)c1ccc(S(=O)(=O)NCCO)cc1N1CCC2(CC1)CC2 [Compound 406]
  IC50: ≤ 100 nM

## CSc1ccc(NC(=O)c2ccc(NS(=O)(=O)CCO)cc2N2CCC3(CC2)CC3)nc1OC1CCC1 [Compound 599]
  IC50: ≤ 100 nM

## C[C@@H]1CN(c2cc(NC(=O)c3ccc(S(=O)(=O)NCCO)cc3N3CCC4(CC3)CC4)ccc2[N+](=O)[O-])CCO1 [Compound 18]
  IC50: ≤ 100 nM

## C[C@@H]1CN(c2nc(C(=O)Nc3ccc(NS(=O)(=O)[C@@H](C)CO)cc3N3CCC4(CC3)CC4)ccc2[N+](=O)[O-])CCO1 [Compound 175]
  IC50: ≤ 100 nM

## COc1ccc(C(=O)Nc2ccc(NS(=O)(=O)[C@H](C)CO)cc2N2CCC3(CC2)CC3)nc1N1CCC(F)(F)CC1 [Compound 334]
  IC50: ≤ 100 nM

## C[C@@H](CO)NS(=O)(=O)c1ccc(NC(=O)c2ccc([N+](=O)[O-])c(N3CCC(F)(F)CC3)n2)c(N2CCC3(CC2)CC3)c1 [Compound 189]
  IC50: 100 to 500 nM

## O=C(Nc1ccc([N+](=O)[O-])c(N2CC(F)(F)C2)n1)c1ccc(S(=O)(=O)NCCO)cc1N1CCC2(CC1)CC2 [Compound 84]
  IC50: ≤ 100 nM

## C[C@@H]1CN(c2cc(C(=O)Nc3cnc(S(=O)(=O)N[C@@H](C)CO)cc3N3CCC4(CC3)CC4)ccc2[N+](=O)[O-])CCO1 [Compound 223]
  IC50: 100 to 500 nM

## COc1ccc(C(=O)Nc2cnc(S(=O)(=O)NCCO)cc2N2CCC3(CC2)CC3)nc1N1CC(F)(F)C1 [Compound 372]
  IC50: ≤ 100 nM

## C[C@H](CO)NS(=O)(=O)c1ccc(C(=O)Nc2ccc(OCF)c(N3CCC(F)(F)CC3)n2)c(N2CCC3(CC2)CC3)c1 [Compound 446]
  IC50: ≤ 100 nM

## O=C(Nc1ccc(OCF)c(N2CC(F)(F)C2)n1)c1cnc(S(=O)(=O)NCCO)cc1N1CCC2(CC1)CC2 [Compound 500]
  IC50: ≤ 100 nM

## O=C(Nc1ccc(NS(=O)(=O)CCO)cc1N1CCC2(CC1)CC2)c1ccc(OCF)c(N2CC(F)(F)C2)n1 [Compound 548]
  IC50: ≤ 100 nM

## CSc1ccc(NC(=O)c2cnc(NS(=O)(=O)CCO)cc2N2CCC3(CC2)CC3)cc1OC1CCC1 [Compound 615]
  IC50: ≤ 100 nM

## C[C@H]1CN(c2nc(C(=O)Nc3ccc(S(=O)(=O)NCCO)cc3N3CCC4(CC3)CC4)ccc2OCF)CCO1 [Compound 563]
  IC50: 100 to 500 nM

## O=C(Nc1ccc(OCF)c(OC2CCC2)n1)c1cnc(NS(=O)(=O)CCO)cc1N1CCC2(CC1)CC2 [Compound 487]
  IC50: ≤ 100 nM

## CSc1ccc(NC(=O)c2ccc(NS(=O)(=O)CCO)cc2N2CCC3(CC2)CC3)nc1N1CCC2(CC2)C1 [Compound 598]
  IC50: ≤ 100 nM

## COc1ccc(NC(=O)c2cnc(S(=O)(=O)NCCO)cc2N2CCC3(CC2)CC3)nc1N1CCOCC1 [Compound 316]
  IC50: ≤ 100 nM

## O=C(Nc1cnc(NS(=O)(=O)CCO)cc1N1CCC2(CC1)CC2)c1ccc([N+](=O)[O-])c(N2CCC(F)(F)CC2)c1 [Compound 193]
  IC50: ≤ 100 nM

## COc1ccc(NC(=O)c2ccc(NS(=O)(=O)CCO)cc2N2CCC3(CC2)CC3)nc1NC(C)(C)CO [Compound 267]
  IC50: ≤ 100 nM

## O=C(Nc1cnc(NS(=O)(=O)CCO)cc1N1CCC2(CC1)CC2)c1ccc([N+](=O)[O-])c(N2CCC3(CC3)C2)n1 [Compound 230]
  IC50: ≤ 100 nM

## C[C@H](CO)NS(=O)(=O)c1ccc(C(=O)Nc2ccc([N+](=O)[O-])c(N3CCO[C@H](C)C3)n2)c(N2CCC3(CC2)CC3)c1 [Compound 96]
  IC50: ≤ 100 nM

## C[C@H](CO)S(=O)(=O)Nc1ccc(C(=O)Nc2ccc(OCF)c(N3CCC(F)(F)CC3)n2)c(N2CCC3(CC2)CC3)c1 [Compound 430]
  IC50: ≤ 100 nM

## C[C@@H]1CN(c2cc(C(=O)Nc3cnc(S(=O)(=O)NCCO)cc3N3CCC4(CC3)CC4)ccc2[N+](=O)[O-])CCO1 [Compound 210]
  IC50: 100 to 500 nM

## CSc1ccc(NC(=O)c2cnc(NS(=O)(=O)CCO)cc2N2CCC3(CC2)CC3)cc1N1CCC2(CC2)C1 [Compound 614]
  IC50: ≤ 100 nM

## O=C(Nc1ccc(OCF)c(N2CCC(F)CC2)c1)c1cnc(NS(=O)(=O)CCO)cc1N1CCC2(CC1)CC2 [Compound 457]
  IC50: ≤ 100 nM

## COc1ccc(C(=O)Nc2cnc(S(=O)(=O)NCCO)cc2N2CCC3(CC2)CC3)nc1N1CCC2(CC2)C1 [Compound 374]
  IC50: ≤ 100 nM

## CSc1ccc(NC(=O)c2ccc(NS(=O)(=O)CCO)cc2N2CCC3(CC2)CC3)nc1N1CC(F)(F)C1 [Compound 596]
  IC50: ≤ 100 nM

## CSc1ccc(NC(=O)c2ccc(NS(=O)(=O)CCO)cc2N2CCC3(CC2)CC3)nc1N1CCO[C@H](C)C1 [Compound 594]
  IC50: ≤ 100 nM

Reference: patent publication US20260158017A1, “KIF18A INHIBITOR” (WIGEN BIOMEDICINE TECHNOLOGY (SHANGHAI) CO., LTD., priority 2021, published 2026)
